Experimental data taken from publication PMC12736535, “Generation and Characterization of Novel Contilisant+Tubastatin a Multitarget Small Molecules Against Glioblastoma” (Pharmaceutics, 2025).

Key:
[1] = molecular target: T1, recombinant hMAO-A (Homo sapiens, UniProt P21397); experiment: MAO-A inhibition assay; format: biochemical; conditions: read-out: MAO inhibition MAO-A %
T1 sequence (P21397 1-527): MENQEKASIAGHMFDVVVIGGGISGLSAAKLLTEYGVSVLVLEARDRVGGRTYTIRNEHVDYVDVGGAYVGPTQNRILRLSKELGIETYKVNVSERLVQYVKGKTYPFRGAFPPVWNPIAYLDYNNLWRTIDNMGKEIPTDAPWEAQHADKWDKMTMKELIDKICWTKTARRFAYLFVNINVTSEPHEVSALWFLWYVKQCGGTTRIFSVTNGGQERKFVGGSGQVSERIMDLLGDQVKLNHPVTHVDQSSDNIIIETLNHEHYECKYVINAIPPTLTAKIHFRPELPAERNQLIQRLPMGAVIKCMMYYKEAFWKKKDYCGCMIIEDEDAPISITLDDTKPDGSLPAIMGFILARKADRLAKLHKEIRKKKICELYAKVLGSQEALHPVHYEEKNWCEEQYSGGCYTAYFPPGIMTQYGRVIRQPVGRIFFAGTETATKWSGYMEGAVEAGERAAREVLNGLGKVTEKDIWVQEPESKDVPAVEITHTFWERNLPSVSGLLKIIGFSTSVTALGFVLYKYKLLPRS
Experimental: For MAO inhibition studies, the enzyme solution (0.5 U/mL recombinant hMAO-A or 1.5 U/mL recombinant hMAO-B) was incubated with an inhibitor solution containing 10 µM of the compounds for 30 min at 37 °C. Next, horseradish peroxidase (200 U/mL), Ampliflu Red (20 mM) and tyramine hydrochloride (100 mM) (Sigma-Aldrich) were added, and absorbance was measured at 570 nm every 5 min for 30 min. The percentage of inhibition was calculated from the absorbance values.

[2] = system: U87 glioblastoma cells; experiment: MTT cell viability, U87; format: cell-based; conditions: Homo sapiens, 72 h, read-out: IC50 U87 (GBM)
Experimental: U87-MG, U251-MG and NCI-H1299 cells were purchased from ATCC, while MKN45 was obtained from the Leibniz Institute DSMZ-German Collection of Microorganisms and Cell Cultures and the RWP1 cell line was kindly provided by Dr. Francisco Real. Cells were cultured in DMEM or RPMI (Gibco, Waltham, MA, USA) supplemented with 10% FBS, 100 U/mL penicillin and streptomycin and 2 mM L-Glutamine. Patient-derived glioma neural stem cells (GNS166 and GNS179) were kindly provided by Dr. Steve Pollard. These cells were cultured in adhesion plates treated with laminin A in DMEM/F12 media (Gibco) supplemented with N2 (Gibco), B27 (Gibco), D-(+)-Glucose solution 45% (Sigma-Aldrich, Burlington, MA, USA), basic Fibroblast Growth Factor (Gibco) and epidermal growth factor (Sigma-Aldrich). Normal human astrocytes (NHAs) were purchased from ScienCell and cultured using an astrocyte medium kit (ScienCell, San Diego, CA, USA) supplemented with FBS and Astrocyte Growth Supplement (AGS). All cells were maintained at standard conditions of 37 °C, 95% humidity, 21% O2 and 5% CO2, and cultures were regularly tested for Mycoplasma.
Cells were seeded in 96-well plates at a density of 1.5 × 10^3 or 5 × 10^3 cells/well (conventional cell lines or GNS and NHAs, respectively) and incubated overnight. Next, cells were treated with increasing concentrations of the compounds, and after 72 h, they were incubated for 3.5 h with MTT. Then, absorbance at 570 nm was measured. GraphPad Prism software version 10.4.1 was used to calculate the IC50 values.

Structure (SMILES)	inhibition at 1 µM [1]	inhibition at 10 µM [1]	IC50 [2]
C#CCN(C)CCCOc1ccc(Cl)cc1Cl [Clorgiline, reference compound]	100%	98%	–
CCCN(CCC)NC(=O)c1ccc(S(=O)(=O)n2ccc3cc(OC)ccc32)cc1 [FRB21]	–	–	> 100 µM
CCCNNC(=O)c1ccc(S(=O)(=O)n2ccc3cc(OC)ccc32)cc1 [FRB24]	–	–	7.1 µM
